Patent US10434181B2, “Oligomer-containing benzamide-based compounds” (Nektar Therapeutics, priority 2012, dated 2019)
Several values for one entry are separate records, joined by “and”; a condition that tells them apart may be missing. Identical values can stand only once.

Tests used:
[1] = system: human hepatocytes; experiment: MetID determination in human hepatocytes; format: in vitro ADME
Experimental: (§1) Cryopreserved human and Sprague-Dawley rat hepatocytes were thawed in a 37° C. water bath. […] Samples were obtained from separate plates for each time point during the incubation. At each sampling time, the plates were removed from the incubator, quenched by adding 100 μL cold acetonitrile, and placed in an ice bath until centrifugation at 4,000 rpm for 30 minutes at 4° C. Supernatants were stored at or below −70° C. until LC-MS/MS analysis could be conducted. The liquid chromatography system used was Agilent 1100 Autosampler, Binary Pump, DAD and Column Enclosure. Tandem mass spectrometry was conducted using a Thermo DECA XP MAX Ion Trap Mass Spectrometer. The ion source was Electrospray (+) and the LC column used was a Varian, Polaris 5 C18-A (250×2.1 mm, 5 micron) column.
(§2) Metabolic pathways of metoclopramide and conjugates were determined in rat and human hepatocytes. N-dealkylation was the major metabolic pathway for metoclopramide in rats, and metabolism in human hepatocytes was minimal. […] FIG. 2 and FIG. 3 show the metabolic pathway of for mPEG1-N-metoclopramide and mPEG4-N-metoclopramide, respectively. […] In this figure, different metabolites for each conjugate are denoted with the “M” and correspond to the designation provided in the figure for a given conjugate. For example, metabolite M1 for mPEG1-N-metoclopramide in Table 6 corresponds to M1 in FIG. 2, metabolite M2 for mPEG4-N-metoclopramide in Table 6 corresponds to M2 in FIG. 3 and metabolite M3 mPEG8-N-metoclopramide in Table 6 corresponds to M3 in FIG. 4.

[2] = system: Sprague-Dawley rat hepatocytes; experiment: MetID determination in rat hepatocytes; format: in vitro ADME; settings: for major metabolic pathway: rat hepatocytes
Experimental: as §1, §2

[3] = in vivo; settings: male, Sprague Dawley, rat, plasma; for AUC(0-inf) / MRT inf / Vd / clearance / half-life: iv, 0.5 mg/kg
Experimental: (§3) Rat pharmacokinetic (“PK”) characterization was conducted in male Sprague Dawley Rats (Rattus Norvegicus) weighing between 210-260 gm (Charles River Laboratories (Hollister, Calif.)). Rats were fed a standard diet and water was available ad-libidum at all times. […] Animals were dosed either orally (2.5 mg/Kg) via gavage or intravenously (0.5 mg/kg) via the jugular vein cannula. Blood samples (˜0.15 mL) were collected through carotid artery cannula at respective time points and transferred immediately into K2EDTA-coated tubes (that contain quenching media-acetic acid, PMSF and Dichlorvos) and placed on ice. The samples were centrifuged within thirty minutes after collection at 10,000 RPM for five minutes and the resulting plasma was separated. Plasma were transferred into microfuge tubes and placed on dry ice immediately. The plasma samples were stored at approximately −70° C. until shipped on dry ice for Bioanalysis by LC/MS/MS. Urine samples were collected using metabolic cages into a tube containing citric acid (4 mg for 0-4 and 4-8 hr interval and 16 mg for 8-24 hr interval) on wet ice at the intervals specified in the study design. After the completion of urine collection at each interval, each cage was rinsed with 2 mL of deionized water (1 mL each time). The rinse was collected in the separate labeled container (containing 2 mg of citric acid) as the urine. Following this rinse another 2 ml rinse was carried out with ethanol (1 ml each time). The rinse was also collected in the separate labeled container as the urine. Samples were stored frozen at −70° C. until bioanalysis by LC/MS/MS was performed.
(§4) Pharmacokinetic parameters were determined by non-compartmental analysis using Phoenix®WinNonlin® (Version 6.3; Pharsight Corp., Mountain View, Calif.). Nominal doses and sampling times were used for the analysis. Concentrations reported as BLQ were treated as missing unless they were pre-dose; then they were set to zero. Maximum plasma concentration (Cmax) and time of observed maximum plasma analyte concentration (Tmax) were generated by Phoenix®WinNonlin®, directly from the inputed dataset. […] Area under the plasma concentration-time curve from time 0 to infinity (AUCinf) was calculated as the sum of AUClast and the last observed concentration divided by k. Total plasma clearance (CL) was calculated as Dose/AUCinf. Apparent volume of distribution at steady state (Vss) was calculated as MRTinf*CL, where MRT is the mean residence time.

[4] = target: dopamine 2L receptors (Homo sapiens, UniProt P14416); experiment: Competition binding assay (dopamine 2L receptors), [3H]methylspiperone; design: expressed in transfected cells; settings: for Fold-change Relative to Parent: IC50 relative to metoclopramide, D2L binding; for IC50: [3H]methylspiperone competition, HEK 293 membranes expressing D2L, read-out: IC50
dopamine 2L receptors, sequence (P14416 whole entry): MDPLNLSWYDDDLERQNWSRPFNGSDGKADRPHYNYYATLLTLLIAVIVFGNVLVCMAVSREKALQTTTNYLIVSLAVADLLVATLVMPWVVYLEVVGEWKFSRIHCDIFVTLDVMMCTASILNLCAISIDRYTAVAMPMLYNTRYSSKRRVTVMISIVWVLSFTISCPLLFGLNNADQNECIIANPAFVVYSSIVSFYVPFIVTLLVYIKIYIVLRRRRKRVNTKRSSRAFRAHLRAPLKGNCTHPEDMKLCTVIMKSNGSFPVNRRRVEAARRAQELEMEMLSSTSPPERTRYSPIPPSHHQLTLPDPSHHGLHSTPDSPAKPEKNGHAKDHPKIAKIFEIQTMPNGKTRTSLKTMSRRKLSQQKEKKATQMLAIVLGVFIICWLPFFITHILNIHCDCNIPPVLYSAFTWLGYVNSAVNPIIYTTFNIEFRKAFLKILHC
Experimental: [^3H] Methylspiperone was diluted in assay buffer to a final concentration of 0.4 nM. To start the assay, 1 uL of compound was added into 96-well v-bottom plates, followed by the addition of 50 uL of diluted membrane preparation, then finally diluted [^3H] Methylspiperone was added. The assay mixture was incubated for 60 minutes at room temperature with shaking. Following incubation, bound [^3H] methylspiperone on 5% PEI soaked GF/B filter plates using a Filtermate Harvester (Perkin Elmer) were then washed four times with ice cold wash buffer (50 mM Tris-HCl, pH 7.5). Filter plates were air dried for two minutes, and then 50 uL of MicroScint-20 was added into each well. Radioactivity counts were quantified using a Top Count plate reader (Perkin Elmer). Data was analyzed using one-site binding competition non-linear regression curve fitting on GraphPad Prism.

[5] = Rat PK (intravenous and oral); settings: for CLRen: intravenous, 0.5 mg/kg; for Clast / Tlast: oral gavage, 2.5 mg/Kg
Experimental: as §3, §4

[6] = target: T1, dopamine 2S receptor (Homo sapiens, UniProt P14416); experiment: β-Arrestin functional assay (dopamine), antagonist mode; format: cell-based; settings: for Fold-change Relative to Parent: IC50 relative to metoclopramide, D2S β-arrestin; for IC50: β-arrestin interaction, CHO-K1 cells expressing D2S, dopamine at EC80 (400 nM)
T1 construct: host or cells: CHO-K1 (PathHunter eXpress β-arrestin cells)
T1 sequence (P14416 1-414 isoform P14416-2): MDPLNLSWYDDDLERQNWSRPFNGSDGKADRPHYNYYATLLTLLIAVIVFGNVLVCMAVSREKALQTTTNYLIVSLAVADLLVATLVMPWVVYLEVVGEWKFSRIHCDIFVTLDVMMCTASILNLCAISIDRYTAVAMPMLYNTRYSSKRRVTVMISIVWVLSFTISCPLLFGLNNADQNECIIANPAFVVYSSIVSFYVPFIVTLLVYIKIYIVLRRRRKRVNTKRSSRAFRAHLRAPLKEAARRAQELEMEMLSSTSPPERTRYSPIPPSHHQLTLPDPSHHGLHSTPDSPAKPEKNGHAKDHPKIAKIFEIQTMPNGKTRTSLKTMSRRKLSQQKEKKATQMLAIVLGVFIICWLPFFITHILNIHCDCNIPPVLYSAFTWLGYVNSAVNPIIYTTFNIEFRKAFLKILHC

[7] = target: serotonin 4 receptor (5HT4) (Homo sapiens, UniProt Q13639); experiment: cAMP accumulation assay (serotonin 4 receptors); format: cell-based; settings: for Fold-change Relative to Parent: IC50 relative to metoclopramide, 5HT4 cAMP; for IC50: cAMP accumulation, CHO-K1 cells stably expressing 5HT4
serotonin 4 receptor (5HT4), sequence (Q13639 whole entry, species assumed): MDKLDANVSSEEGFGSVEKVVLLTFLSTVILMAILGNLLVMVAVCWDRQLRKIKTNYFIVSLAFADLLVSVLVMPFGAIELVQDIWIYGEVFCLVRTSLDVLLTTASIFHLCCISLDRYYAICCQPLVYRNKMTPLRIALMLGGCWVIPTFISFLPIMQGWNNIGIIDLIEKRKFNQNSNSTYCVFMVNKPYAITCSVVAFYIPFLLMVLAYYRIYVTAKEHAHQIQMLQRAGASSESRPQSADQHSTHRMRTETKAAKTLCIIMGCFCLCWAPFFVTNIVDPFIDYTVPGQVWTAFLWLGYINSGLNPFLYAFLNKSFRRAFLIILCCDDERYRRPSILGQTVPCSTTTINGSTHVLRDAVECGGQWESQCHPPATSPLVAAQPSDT

[8] = target: T2, 5HT4B receptors (serotonin 4B receptors) (Homo sapiens, UniProt Q13639); experiment: Competition binding assay (serotonin 4B receptors), [3H]GR113808; settings: for Fold-change Relative to Parent: IC50 relative to metoclopramide, 5HT4B binding; for IC50: [3H]GR113808 competition, HEK 293 membranes expressing 5HT4B
T2 construct: expressed in transfected cells
T2 sequence (Q13639 whole entry): as the sequence (Q13639 whole entry, species assumed) above

[9] = incubation of 10 μM mPEG8-N-metoclopramide, parent and its metabolites M (FIG. 4)
[10] = incubation of 10 μM mPEG1-N-metoclopramide, parent and its metabolites M (FIG. 2)
[11] = incubation of 10 μM mPEG4-N-metoclopramide, parent and its metabolites M (FIG. 3)

Row | SMILES | % of Total Metabolism, Human Hep 1 hr [1, 9] | % of Total Metabolism, Human Hep 4 hr [1, 9] | % of Total Metabolism, Rat Hep 1 hr [2, 9] | % of Total Metabolism, Rat Hep 4 hr [2, 9] | AUC(0-inf) [3] [ng·h/mL] | MRT inf [3] [min] | Vd [3] [L/kg] | clearance [3] [mL/min/kg] | half-life [3] [min] | Fold-change Relative to Parent [4] | IC50 [4] [µM] | CLRen [5] [mL/min/kg] | extent of metabolism in human hepatocytes [1] | major metabolic pathway [2] | Fold-change Relative to Parent [6] | IC50 [6] | Fold-change Relative to Parent [8] | IC50 [8] [µM] | further results
1 | CCN(CCNC(=O)c1cc(Cl)c(N)cc1OC)CCOCCOCCOCCOCCOCCO [M15] | trace | trace | Trace | 1% | – | – | – | – | – | – | – | – | – | – | – | – | – | – | –
2 | CCN(CCNC(=O)c1cc(Cl)c(N)cc1OC)CCOCCOCCOCCOCCOCCOCCO [M16] | trace | trace | trace | trace | – | – | – | – | – | – | – | – | – | – | – | – | – | – | –
3 | CCN(CCNC(=O)c1cc(Cl)c(N)cc1OC)CCOCCOCCOCCOCCOCCOCCOCCO [M17] | trace | trace | trace | trace | – | – | – | – | – | – | – | – | – | – | – | – | – | – | –
4 | CCN(CCNC(=O)c1cc(Cl)c(N)cc1OC)CCOC [mPEG1-N-Metoclopramide] | – | – | – | – | 88.3 | 27.6 | 2.84 | 101 | 39 | 2.8 | 0.233 | 4.4 | low metabolism | N-dealkylation | 4.19 | 0.345 µM | 1.3 | 19.7 | AUC ([3]; po, 2.5 mg/kg): 24.2 ng·h/mL; CL/F ([3]; po, 2.5 mg/kg): 1550 mL/min/kg; Cmax ([3]; po, 2.5 mg/kg): 33.2 ng/mL; Tmax ([3]; po, 2.5 mg/kg): 4.8 min; bioavailability ([3]; po, 2.5 mg/kg): 6.25%; Clast [5]: 4.39 ng/mL; Tlast [5]: 2.5 h; % of Total Metabolism, Human Hep 1 hr [1, 10]: 86.5%; % of Total Metabolism, Human Hep 4 hr [1, 10]: 90.2%; % of Total Metabolism, Rat Hep 1 hr [2, 10]: 32.7%; % of Total Metabolism, Rat Hep 4 hr [2, 10]: <1.0%; Fold-change Relative to Parent [7]: 1.5; IC50 [7]: 1.59 µM
5 | CCN(CCNC(=O)c1cc(Cl)c(N)cc1OC)CCOCCOC [mPEG2-N-Metoclopramide] | – | – | – | – | – | – | – | – | – | 16.1 | 1.36 | – | – | – | 9.57 | 0.786 µM | 2.0 | 29.7 | –
6 | CCN(CCNC(=O)c1cc(Cl)c(N)cc1OC)CCOCCOCCOCCOC [mPEG4-N-Metoclopramide] | – | – | – | – | 63.5 | 33.6 | 7.17 | 133 | 39 | 38.7 | 3.26 | 9.0 | low metabolism | N-dealkylation | 37.03 | 3.04 µM | 2.0 | 30.7 | AUC ([3]; po, 2.5 mg/kg): 41.4 ng·h/mL; Cmax ([3]; po, 2.5 mg/kg): 16.6 ng/mL; Tmax ([3]; po, 2.5 mg/kg): 120 min; bioavailability ([3]; po, 2.5 mg/kg): 14.5%; Clast [5]: 3 ng/mL; Tlast [5]: 5 h; % of Total Metabolism, Human Hep 1 hr [1, 11]: 100%; % of Total Metabolism, Human Hep 4 hr [1, 11]: 93.7%; % of Total Metabolism, Rat Hep 1 hr [2, 11]: 61.5%; % of Total Metabolism, Rat Hep 4 hr [2, 11]: 16.1%; Fold-change Relative to Parent [7]: 0.62; IC50 [7]: 0.644 µM and 0.64 µM
7 | CCN(CCNC(=O)c1cc(Cl)c(N)cc1OC)CCOCCOCCOCCOCCOCCOCCOC [mPEG7-N-Metoclopramide] | – | – | – | – | – | – | – | – | – | 137.3 | 11.6 | – | – | – | 99.57 | 8.18 µM | 8.8 | 133 | –
8 | CCN(CCNC(=O)c1cc(Cl)c(N)cc1OC)CCOCCOCCOCCOCCOCCOCCOCCOC [mPEG8-N-Metoclopramide] | 100% | 94.8% | 83% | 43.5% | 98.3 | 146 | 17.8 | 84.4 | 145 | 80.7 | 6.79 | 0.54 | only minor metabolism | PEG chain modification | 67.4 | 5.53 µM and 5.54 µM | 11.9 | 181 | N-dealkylation compared with metoclopramide ([2]; hepatocytes): less compared with metoclopromide
9 | CCN(CCNC(=O)c1cc(Cl)c(N)cc1OC)CCOCCOCCOCCOCCOCCOCCOCCOCCOC [mPEG9-N-Metoclopramide] | – | – | – | – | – | – | – | – | – | 131.9 | 11.1 | – | – | – | 87.86 | 7.22 µM | 13.3 | 202 | Fold-change Relative to Parent ([6]; listed as mPEG9-N-metoclopramide): 87.6
